Data reported in patent US20100197610A1, “FRUCTOSE 1, 6 BISPHOSPHATE - A NOVEL ANTICONVULSANT DRUG” (Baylor College of Medicine, priority 2007, published 2010).

Legend:
[1] = tested on: kainic acid-induced seizures; experiment: Kainic acid model of acute seizures; format: in vivo, Sprague Dawley rats; details: for animals with mild seizures (wet dog shakes or head bobbing) / animals with severe seizures: 8 animals
Description: All animal experiments were carried out in accordance with the National Institutes of Health guide for the care and use of laboratory animals (NIH publication 8023, revised 1996) and with the approval of the local Animal Use Committee. Unless indicated, all chemicals were obtained from Sigma Chemical Co (St. Louis Mo.). Male, Sprague Dawley rats weighing 50-74 g (young) or 147-309 g (adult) were used in this study. Acute seizures were induced by kainic acid (KA; Ocean Produce Int., Canada), pilocarpine or pentylenetetrazole (PTZ) as previously described (Lian et al 2006). These models were chosen because they initiate seizures by different mechanisms and the seizures have a relatively gradual onset compared to seizures initiated by stimulation. There was no difference in the body weight of the animals receiving the different convulsants. For pilocarpine, kainic acid and PTZ, the mean weights were 219±5 g (range 163-275 g), 215±7 g (range 183-258 g), and 216±13 g (range 147-309 g), respectively. The animals in the drug treatment groups were not different in weight from the animals in the control groups.
After administration of KA (10 mg/kg, ip), pilocarpine (scopolamine methyl bromide 1 mg/kg, s.c followed 15 min later by 300 mg/kg, ip pilocarpine) or PTZ (50 mg/kg, ip) (Lian et al., 2006), animals were continuously monitored for seizure activity for at least 5 h after KA or pilocarpine and for 30 min after PTZ. Behavioral seizures were scored by an investigator blinded to the treatment. Latency to the first wet dog shake after KA, latency to the first forelimb clonus (after pilocarpine, kainic acid or PTZ) and the score and duration of seizures were measured. When at least 1 hour had passed without any head bobbing (for pilocarpine) or any wet dog shakes (for KA), seizures were considered over. Status epilepticus lasting longer than 4 hours (for KA) or 5 hours (for pilocarpine) were assigned 4 and 5 hours for seizure duration. For animals receiving PTZ, the seizure duration was defined as the period of tonic-clonic seizures. EEG recording in the hippocampus was conducted as previously described (Lian et al., 2004). After anesthesia, a recording electrode was placed in a burr hole centered at 3.0 mm posterior to bregma, 1.8 mm lateral to the midline and then lowered 3.0 mm. A ground screw and wire was placed over the frontal region in another burr hole. This assembly was fixed to the skull with dental cement.
Each animal was assigned the score of the most severe seizure observed. The behavioral seizures induced by KA or pilocarpine were scored according to an adjusted version of the scale of Racine (Bough et al., 2002): stage 1, wet dog shakes after KA or trembling after pilocarpine; stage 2, head bobbing and stereotypes; stage 3, unilateral forelimb clonus; stage 4, bilateral forelimb clonus; stage 5, rearing and falling; stage 6, jumping and/or running followed by falling. Death within 24 h was assigned stage 7.
Adult rats received either D-F1,6BP, sodium valproate (VPA, 0.3 g/kg), 2-DG (0.25, 0.5 g/kg) or normal saline (vehicle) intraperitoneally followed 1 h later by one of the convulsants. The dose for VPA was based on experimental evidence that doses from 0.1 to 0.4 g/kg (ip) are effective in animal models (Bough and Eagles, 2001; Manent et al., 2007). Three doses of F1,6BP (0.25, 0.5 and 1 g/kg) were tested with this dosing schedule. Two additional groups were administered F1,6BP (0.5 or 1 g/kg, n=5) after pilocarpine. In this experiment, the F1,6BP was given intraperitoneally at the first behavioral seizure, which was chewing movements of the jaw. Two additional sets of animals were fed the classic ketogenic diet (No. F3666; Bio-Serv, Frenchtown, N.J.). One set of animals was given the diet beginning on postnatal day 22-26 (KD-Yng) and maintained on this diet for 4 weeks. Thus the seizures were tested in this group when the animals had reached approximately the same age (50-54 days) as the majority of the animals tested. […]

[2] = cited from earlier work

O=C(COP(=O)(O)O)[C@@H](O)[C@H](O)[C@H](O)COP(=O)(O)O [F1,6BP, Fructose-1,6-bisphosphate]
effect on the seizures ([1]; F1,6BP 0.25 g/kg, n=6): no effect | animals with no seizures ([1]; F1,6BP 0.5 g/kg): Two out of 8 | mean seizure score ([1]; F1,6BP 0.5 g/kg): 2.5±0.5 | animals with mild seizures (wet dog shakes or head bobbing) ([1]; F1,6BP 0.5 g/kg): three | animals with severe seizures ([1]; F1,6BP 0.5 g/kg): 3 | onset of seizures ([1]; F1,6BP 0.5 or 1 g/kg): significantly delayed | seizure duration ([1]; F1,6BP 0.5 or 1 g/kg): decreased | seizure score ([1]; F1,6BP 0.5 or 1 g/kg): decreased | animals with no seizures ([1]; F1,6BP 1 g/kg): Three out of 8 | average seizure score for the entire group ([1]; F1,6BP 1 g/kg): 1.4±0.5 | mean latency to first forelimb clonus ([1]; F1,6BP 1 g/kg): 105 ± 7 min | animals with mild seizures (wet dog shakes or head bobbing) ([1]; F1,6BP 1 g/kg): 3 | animals with severe seizures ([1]; F1,6BP 1 g/kg): 2 | toxicity in humans ([2]; administered to humans): no reported toxicity | safety in healthy volunteers ([2]; doses from 5 to 15 g): safe
